Measured values: publication PMC9124600 (Medical Oncology (Northwood, London, England), 2022)

Biological target: T1, MASTL kinase (Microtubule-associated serine/threonine kinase-like; Great wall kinase) (Homo sapiens, UniProt Q96GX5)
T1 sequence (Q96GX5 1-879): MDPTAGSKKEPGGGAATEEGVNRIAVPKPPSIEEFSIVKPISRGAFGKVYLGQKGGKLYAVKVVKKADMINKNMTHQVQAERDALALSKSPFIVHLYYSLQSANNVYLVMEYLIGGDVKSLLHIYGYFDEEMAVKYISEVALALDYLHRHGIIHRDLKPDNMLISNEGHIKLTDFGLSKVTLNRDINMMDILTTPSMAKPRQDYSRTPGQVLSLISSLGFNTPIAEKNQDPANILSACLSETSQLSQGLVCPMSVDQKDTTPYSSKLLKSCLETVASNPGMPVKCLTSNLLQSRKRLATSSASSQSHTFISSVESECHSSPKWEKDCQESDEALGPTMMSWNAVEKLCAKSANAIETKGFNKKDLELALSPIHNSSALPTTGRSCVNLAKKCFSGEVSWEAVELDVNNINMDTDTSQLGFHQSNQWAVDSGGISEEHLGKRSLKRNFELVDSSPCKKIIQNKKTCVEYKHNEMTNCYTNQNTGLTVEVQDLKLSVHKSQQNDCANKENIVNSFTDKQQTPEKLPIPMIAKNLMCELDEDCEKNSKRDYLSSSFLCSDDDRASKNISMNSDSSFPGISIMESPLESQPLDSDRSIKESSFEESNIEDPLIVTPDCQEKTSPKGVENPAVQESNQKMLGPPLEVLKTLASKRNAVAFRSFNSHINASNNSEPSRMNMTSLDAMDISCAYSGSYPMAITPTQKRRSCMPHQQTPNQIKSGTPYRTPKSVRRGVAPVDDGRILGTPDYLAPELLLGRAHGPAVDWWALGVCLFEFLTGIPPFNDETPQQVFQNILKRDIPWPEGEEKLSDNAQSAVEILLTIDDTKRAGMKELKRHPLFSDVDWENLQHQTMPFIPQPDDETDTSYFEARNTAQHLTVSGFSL
Experiment: ADP-Glo luminescent in vitro kinase assay
Assay type: biochemical

Compound | EC50
Cn1cc(C2=C(c3cn(C4CCN(Cc5ccccn5)CC4)c4ccccc34)C(=O)NC2=O)c2ccccc21 [Enzastaurin] | 17.1 µM
CC(=O)c1c(C)c2cnc(Nc3ccc(N4CCNCC4)cn3)nc2n(C2CCCC2)c1=O [Palbociclib] | 10.5 µM
